Source: patent US12692233B2, “Anthelmintic compounds comprising a pyridine structure” (Intervet Inc., priority 2020, dated 2026)

How the values were obtained:
[1] = target: T1, human Maxi K channel (BK channel) (Homo sapiens, UniProt Q12791); assay: Agonistic activity at the human Maxi K channel (BK channel), FLIPR membrane potential in CHO K1 cells; format: cell-based; conditions: CHO K1 cells stably transfected with KCNMA1 and beta1 (KCNMB1) subunits, membrane potential dye
T1 construct: expressed in transfected cells; host or cells: CHO K1
Excerpt: A CHO K1 cell line was stably transfected with the KCNMA1 (KCa1.1, U11058) and beta1 (KCNMB1) subunits of the human Maxi K channel (Ponte et al, Molecular Pharmacology 2012, 81(4), 567-577).
The complete measurement takes 150 s.

[2] = target: C. elegans Slo-1a (Caenorhabditis elegans, UniProt Q95V25); assay: Agonistic activity at C. elegans Slo-1a, FLIPR membrane potential in CHO K1 cells; conditions: EC50 agonistic activity at C. elegans Slo-1a, CHO K1 cells stably transfected with slo-1a, membrane potential dye
[3] = test system: Ascaridia galli; assay: In vitro assay Ascaridia galli larval stage 3; format: cell-based; conditions: larval stage 3, 20 larvae per well, microscopic examination, read-out: MEC (minimum effective concentration) against Ascaridia galli L3
Excerpt: (§1) […] galli (intestinal roundworm of chicken), larval stage 3 (“L3”); and Oesophagostumum dentatum (nodular worm of swine), larval stages 3 and 4 (respectively “L3” and “L4”) where suspended in a nutrient medium and distributed to 96 well plates with 20 larvae per well. The wells were spiked DMSO solutions of the compounds with declining concentration.

[4] = test system: Oesophagostumum dentatum; assay: In vitro assay Oesophagostumum dentatum larval stage 3; format: cell-based; conditions: larval stage 3, 20 larvae per well, microscopic examination; read-out: MEC (minimum effective concentration) against Oesophagostumum dentatum L3
Excerpt: as §1

[5] = test system: Dirofilaria immitis; assay: In vitro assay Dirofilaria immitis L1 (microfilaria), motility; format: cell-based; conditions: 72 h, 3 days incubation, reduction in motility vs DMSO
Protocol: Approximately 500 D. immitis microfilaria were added to a microtiter plate containing a nutrient medium and the test compound in DMSO at varying concentrations. After incubation for 3 days, activity was evaluated as reduction in motility as compared to DMSO as negative control. Compounds were tested in duplicates. Based on the concentration response curves EC50 values were calculated.

[6] = test system: Oesophagostumum dentatum; assay: In vitro assay Oesophagostumum dentatum larval stage 4; format: cell-based; conditions: larval stage 4, 20 larvae per well, microscopic examination; read-out: MEC (minimum effective concentration) against Oesophagostumum dentatum L4
Excerpt: as §1

Sequence of C. elegans Slo-1a (Q95V25 whole entry): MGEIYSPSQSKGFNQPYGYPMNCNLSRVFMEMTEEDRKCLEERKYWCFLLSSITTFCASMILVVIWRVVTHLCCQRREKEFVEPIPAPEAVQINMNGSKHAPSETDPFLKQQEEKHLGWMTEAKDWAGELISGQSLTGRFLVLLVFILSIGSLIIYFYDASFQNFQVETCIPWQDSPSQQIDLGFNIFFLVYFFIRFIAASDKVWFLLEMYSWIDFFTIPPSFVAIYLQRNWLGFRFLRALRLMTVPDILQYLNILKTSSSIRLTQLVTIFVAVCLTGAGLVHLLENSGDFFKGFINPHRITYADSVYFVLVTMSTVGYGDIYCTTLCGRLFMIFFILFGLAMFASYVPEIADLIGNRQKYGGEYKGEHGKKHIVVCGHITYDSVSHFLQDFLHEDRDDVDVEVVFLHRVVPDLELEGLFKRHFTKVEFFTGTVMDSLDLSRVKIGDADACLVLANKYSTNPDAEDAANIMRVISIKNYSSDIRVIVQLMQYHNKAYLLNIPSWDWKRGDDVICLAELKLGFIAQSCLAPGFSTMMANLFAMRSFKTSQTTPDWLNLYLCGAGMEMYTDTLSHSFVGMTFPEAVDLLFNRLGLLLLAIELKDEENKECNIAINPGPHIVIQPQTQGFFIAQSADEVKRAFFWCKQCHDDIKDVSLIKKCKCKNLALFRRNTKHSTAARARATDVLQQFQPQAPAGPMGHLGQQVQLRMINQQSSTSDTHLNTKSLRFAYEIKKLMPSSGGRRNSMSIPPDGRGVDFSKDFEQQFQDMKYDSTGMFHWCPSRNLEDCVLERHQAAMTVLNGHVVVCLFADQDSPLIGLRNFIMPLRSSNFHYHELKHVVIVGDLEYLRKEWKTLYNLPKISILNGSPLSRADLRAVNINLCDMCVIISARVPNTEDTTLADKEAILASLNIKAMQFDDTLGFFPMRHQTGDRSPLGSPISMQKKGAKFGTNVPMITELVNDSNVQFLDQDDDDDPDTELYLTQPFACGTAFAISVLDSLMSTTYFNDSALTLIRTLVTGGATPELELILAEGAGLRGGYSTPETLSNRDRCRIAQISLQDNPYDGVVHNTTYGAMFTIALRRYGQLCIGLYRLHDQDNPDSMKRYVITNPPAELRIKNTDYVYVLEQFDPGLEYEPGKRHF
T1 sequence (Q12791 1-1178 isoform Q12791-5): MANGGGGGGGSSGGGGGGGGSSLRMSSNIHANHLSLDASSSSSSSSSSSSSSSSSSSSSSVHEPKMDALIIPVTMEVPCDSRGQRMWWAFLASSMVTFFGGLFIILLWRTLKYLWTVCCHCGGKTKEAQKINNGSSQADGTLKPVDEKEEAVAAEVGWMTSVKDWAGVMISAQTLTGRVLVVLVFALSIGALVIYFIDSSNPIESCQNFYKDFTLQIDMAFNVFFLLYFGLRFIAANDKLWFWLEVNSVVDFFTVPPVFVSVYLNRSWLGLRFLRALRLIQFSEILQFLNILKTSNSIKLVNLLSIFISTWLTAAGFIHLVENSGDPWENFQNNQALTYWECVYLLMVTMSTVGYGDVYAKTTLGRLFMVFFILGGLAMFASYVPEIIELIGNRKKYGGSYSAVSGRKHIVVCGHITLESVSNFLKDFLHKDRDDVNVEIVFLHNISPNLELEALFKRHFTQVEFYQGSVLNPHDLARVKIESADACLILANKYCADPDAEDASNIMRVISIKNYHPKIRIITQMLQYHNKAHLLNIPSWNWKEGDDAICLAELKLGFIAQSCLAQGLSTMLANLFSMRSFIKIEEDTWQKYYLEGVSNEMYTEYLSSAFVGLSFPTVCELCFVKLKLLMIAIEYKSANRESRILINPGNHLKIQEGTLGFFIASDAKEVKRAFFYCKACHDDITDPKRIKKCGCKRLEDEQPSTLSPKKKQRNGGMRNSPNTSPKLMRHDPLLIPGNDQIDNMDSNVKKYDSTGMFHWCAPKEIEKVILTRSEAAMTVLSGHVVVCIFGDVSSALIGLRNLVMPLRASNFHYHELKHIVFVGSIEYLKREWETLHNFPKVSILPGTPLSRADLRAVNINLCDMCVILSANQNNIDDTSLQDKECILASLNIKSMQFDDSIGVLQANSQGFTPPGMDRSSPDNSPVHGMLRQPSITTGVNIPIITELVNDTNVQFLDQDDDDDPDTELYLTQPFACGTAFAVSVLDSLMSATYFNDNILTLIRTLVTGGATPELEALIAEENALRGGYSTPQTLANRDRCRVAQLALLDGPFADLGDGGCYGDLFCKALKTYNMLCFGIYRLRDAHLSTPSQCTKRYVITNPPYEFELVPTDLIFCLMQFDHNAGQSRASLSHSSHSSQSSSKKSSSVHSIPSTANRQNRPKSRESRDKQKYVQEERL
T1 sequence (Q16558 whole entry partner): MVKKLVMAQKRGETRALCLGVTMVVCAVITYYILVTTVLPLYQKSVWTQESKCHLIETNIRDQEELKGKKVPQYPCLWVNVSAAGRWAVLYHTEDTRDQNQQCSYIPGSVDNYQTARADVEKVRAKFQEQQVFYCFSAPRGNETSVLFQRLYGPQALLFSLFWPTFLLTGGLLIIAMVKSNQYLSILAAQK

| SMILES | EC50 [1] | EC50 [2] | minimal effective concentration [3] | minimal effective concentration [4] | EC50 [5] | minimal effective concentration [6] |
| --- | --- | --- | --- | --- | --- | --- |
| CN(C)c1cc(Sc2cc(Cl)cc(Cl)c2)ncc1C(=O)Nc1cccc2ccccc12 [Compound 16] | > 30 µM | – | ≤ 50 µM | ≤ 50 µM | – | – |
| CN(C)c1cc(Sc2cccc(Cl)c2Cl)ncc1C(=O)N[C@H]1CCCc2ccccc21 [Compound 19] | > 30 µM | < 1 µM | ≤ 50 µM | – | – | – |
| O=C(N[C@H]1CCc2ccccc21)c1cnc(Sc2cccc(Cl)c2Cl)cc1N1CCOCC1 [Compound 23] | > 30 µM | < 1 µM | ≤ 50 µM | – | < 10 µM | – |
| O=C(N[C@@H]1CCOc2ccccc21)c1cnc(Oc2cc(Cl)cc(Cl)c2)cc1N1CCOCC1 [Compound 24] | > 30 µM | – | – | ≤ 50 µM | < 10 µM | ≤ 50 µM |
| CN(C)c1cc(Oc2cc(Cl)cc(Cl)c2)ncc1C(=O)N[C@@H]1CCOc2ccccc21 [Compound 29] | > 30 µM | – | ≤ 50 µM | – | < 10 µM | ≤ 50 µM |
| CN(C)c1cc(Oc2cc(Cl)cc(Cl)c2)ncc1C(=O)Nc1cccc2ccccc12 [Compound 32] | > 30 µM | – | – | ≤ 50 µM | < 10 µM | – |
| O=C(Nc1cccc2ccccc12)c1cnc(Oc2cccc(Cl)c2Cl)cc1N1CCOCC1 [Compound 45] | > 30 µM | – | – | – | < 10 µM | – |
| O=C(N[C@@H]1CCOc2ccccc21)c1cnc(Sc2cccc(Cl)c2Cl)cc1N1CCOCC1 [Compound 50] | > 30 µM | – | – | – | < 10 µM | – |
| CSc1cc(Sc2cccc(Cl)c2Cl)ncc1C(=O)N[C@H]1CCCc2ccccc21 [Compound 54] | > 30 µM | < 10 µM | ≤ 50 µM | – | – | – |
| CSc1cc(Oc2cccc(Cl)c2Cl)ncc1C(=O)N[C@H]1CCCc2ccccc21 [Compound 56] | > 30 µM | < 10 µM | ≤ 50 µM | – | – | – |
| CCSc1cc(Sc2cc(Cl)cc(Cl)c2)ncc1C(=O)N[C@H]1CCOc2ccccc21 [Compound 74] | > 30 µM | – | – | ≤ 50 µM | – | ≤ 50 µM |
| COc1cc(Sc2cc(Cl)cc(Cl)c2)ncc1C(=O)N[C@H]1CCOc2ccccc21 [Compound 83] | > 30 µM | < 10 µM | ≤ 50 µM | ≤ 50 µM | – | – |
| COc1cc(Oc2cc(Cl)cc(Cl)c2)ncc1C(=O)N[C@H]1CCCc2ccccc21 [Compound 85] | > 30 µM | – | ≤ 50 µM | ≤ 50 µM | < 10 µM | – |
| COc1cc(Oc2cccc(Cl)c2Cl)ncc1C(=O)N[C@H]1CCCc2ccccc21 [Compound 96] | > 30 µM | – | ≤ 50 µM | – | < 10 µM | – |
| CCOc1cc(Sc2cc(Cl)cc(Cl)c2)ncc1C(=O)N[C@H]1CCCc2ccccc21 [Compound 99] | > 30 µM | – | – | ≤ 50 µM | – | – |
| CN(C)c1cc(S(=O)(=O)c2cc(Cl)cc(Cl)c2)ncc1C(=O)N[C@H]1CCOc2ccccc21 [Compound 100] | > 30 µM | < 10 µM | ≤ 50 µM | ≤ 50 µM | – | – |
| CN(C)c1cc([S+]([O-])c2cc(Cl)cc(Cl)c2)ncc1C(=O)N[C@H]1CCCc2ccccc21 (stereo partly shown) [Compound 101] | > 30 µM | – | – | ≤ 50 µM | < 10 µM | – |
| CN(C)c1cc(S(=O)(=O)c2cc(Cl)cc(Cl)c2)ncc1C(=O)N[C@H]1CCCc2ccccc21 [Compound 102, (S)-6-((3,5-dichlorophenyl)sulfonyl)-4-(dimethylamino)-N-(1,2,3,4-tetrahydronaphthalen-1-yl)nicotinamide] | > 30 µM | – | – | – | < 10 µM | ≤ 50 µM |
| CN(C)c1cc([S+]([O-])c2cc(Cl)cc(Cl)c2)ncc1C(=O)N[C@H]1CCOc2ccccc21 (stereo partly shown) [Compound 103] | > 30 µM | < 10 µM | ≤ 50 µM | ≤ 50 µM | < 10 µM | ≤ 50 µM |
| O=C(N[C@H]1CCOc2ccccc21)c1cnc(Nc2cc(Cl)cc(Cl)c2)cc1N1CCOCC1 [Compound 107] | 10 to 30 µM | < 10 µM | ≤ 50 µM | – | – | – |
| CN(C)c1cc(Nc2cc(Cl)cc(Cl)c2)ncc1C(=O)N[C@H]1CCCc2ccccc21 [Compound 108] | > 30 µM | < 10 µM | ≤ 50 µM | – | – | – |
| CN(C)c1cc(Cc2cc(Cl)cc(Cl)c2)ncc1C(=O)N[C@H]1CCc2ccccc21 [Compound 110] | > 30 µM | – | – | ≤ 50 µM | – | ≤ 50 µM |
| CN(C)c1cc(Cc2cc(Cl)cc(Cl)c2)ncc1C(=O)N[C@H]1CCCc2ccccc21 [Compound 111] | > 30 µM | – | – | ≤ 50 µM | – | ≤ 50 µM |
| O=C(N[C@H]1CCOc2ccccc21)c1cnc(Cc2cc(Cl)cc(Cl)c2)cc1N1CCOCC1 [Compound 112] | > 30 µM | < 10 µM | ≤ 50 µM | ≤ 50 µM | – | – |
| CN(C)c1cc(Nc2cc(Cl)cc(Cl)c2)ncc1C(=O)N[C@H]1CCc2ccccc21 [Compound 116] | > 30 µM | < 10 µM | ≤ 50 µM | ≤ 50 µM | – | ≤ 50 µM |
| O=C(N[C@H]1CCc2ccccc21)c1cnc(Cc2cc(Cl)cc(Cl)c2)cc1N1CCOCC1 [Compound 117] | – | < 10 µM | ≤ 50 µM | ≤ 50 µM | – | ≤ 50 µM |

Second part, led by results:

| EC50 [1] | EC50 [2] | SMILES | minimal effective concentration [3] | minimal effective concentration [4] | EC50 [5] | minimal effective concentration [6] |
| --- | --- | --- | --- | --- | --- | --- |
| > 30 µM | < 10 µM | CN(C)c1cc(Sc2cc(Cl)cc(Cl)c2)ncc1C(=O)N[C@H]1CCCc2ccccc21 [Compound 14] | ≤ 50 µM | – | – | – |
| > 30 µM | < 1 µM | CN(C)c1cc(Oc2cc(Cl)cc(Cl)c2)ncc1C(=O)N[C@H]1CCCc2ccccc21 [Compound 28] | ≤ 50 µM | – | – | – |
| > 30 µM | – | O=C(Nc1csc2ccccc12)c1cnc(Sc2cccc(Cl)c2Cl)cc1N1CCOCC1 [Compound 48] | ≤ 50 µM | – | – | ≤ 50 µM |
| > 30 µM | < 10 µM | CSc1cc(Sc2cccc(Cl)c2Cl)ncc1C(=O)N[C@H]1CCc2ccccc21 [Compound 53] | – | – | – | ≤ 50 µM |
| > 30 µM | < 10 µM | CSc1cc(Oc2cccc(Cl)c2Cl)ncc1C(=O)N[C@H]1CCc2ccccc21 [Compound 58] | ≤ 50 µM | – | – | – |
| > 30 µM | – | CSc1cc(Oc2cc(Cl)cc(Cl)c2)ncc1C(=O)N[C@@H]1CCOc2ccccc21 [Compound 60] | – | ≤ 50 µM | – | – |
| > 30 µM | – | CCSc1cc(Sc2cccc(Cl)c2Cl)ncc1C(=O)N[C@H]1CCCc2ccccc21 [Compound 62] | ≤ 50 µM | ≤ 50 µM | – | – |
| > 30 µM | < 10 µM | COc1cc(Sc2cccc(Cl)c2Cl)ncc1C(=O)N[C@H]1CCCc2ccccc21 [Compound 66] | – | ≤ 50 µM | – | ≤ 50 µM |
| > 30 µM | < 10 µM | COc1cc(Sc2cccc(Cl)c2Cl)ncc1C(=O)N[C@H]1CCOc2ccccc21 [Compound 68] | – | – | – | ≤ 50 µM |
| > 30 µM | – | COc1cc(Oc2cc(Cl)cc(Cl)c2)ncc1C(=O)N[C@H]1CCOc2ccccc21 [Compound 86] | – | ≤ 50 µM | – | – |
| > 30 µM | – | CCOc1cc(Oc2cccc(Cl)c2Cl)ncc1C(=O)N[C@H]1CCOc2ccccc21 [Compound 92] | – | – | – | ≤ 50 µM |
| > 30 µM | < 10 µM | O=C(N[C@H]1CCCc2ccccc21)c1cnc(Nc2cc(Cl)cc(Cl)c2)cc1N1CCOCC1 [Compound 106] | ≤ 50 µM | – | – | – |
| 10 to 30 µM | < 10 µM | O=C(N[C@H]1CCc2ccccc21)c1cnc(Nc2cc(Cl)cc(Cl)c2)cc1N1CCOCC1 [Compound 109] | ≤ 50 µM | ≤ 50 µM | – | – |
| > 30 µM | < 10 µM | O=C(N[C@H]1CCCc2ccccc21)c1cnc(Cc2cc(Cl)cc(Cl)c2)cc1N1CCOCC1 [Compound 113] | – | ≤ 50 µM | – | – |
| > 30 µM | < 10 µM | CN(C)c1cc(Nc2cc(Cl)cc(Cl)c2)ncc1C(=O)N[C@H]1CCOc2ccccc21 [Compound 115] | ≤ 50 µM | ≤ 50 µM | – | – |
